# Laboratory results reported in paper PMC9841525, “Chemical Blockage of the Mitochondrial Rhomboid Protease PARL by Novel Ketoamide Inhibitors Reveals Its Role in PINK1/Parkin-Dependent Mitophagy” (Journal of Medicinal Chemistry, 2022).
# Entries after “also recorded” stand apart in the source; their conditions may differ. Where a SMILES comes first, the peptide text is derived from it. The star is where a group is joined. AMC = Cc1cc(=O)oc2cc(N*)ccc12
# Key:
# HEK293T cells = assay: JC-1 mitochondrial membrane potential assay; type: cell-based, human; conditions: 5 µM compound 5 or CCCP, at least three hours, compared to DMSO
# Method: Staining of cells for the determination of mitochondrial membrane potential was carried out with the JC-1 mitochondrial staining kit (Sigma-Aldrich) according to the kit’s instructions; stained cells were immediately taken to live cell imaging.
# (§1) For fixation, cells were incubated for 15 min with 4% formaldehyde (16% formaldehyde diluted in PBS, Thermo Scientific) and washed in PBS. The cover glasses were mounted with Fluoromount-G (Southern Biotech) on microscope slides. All microscopy was performed on an LSM 780 system (Carl Zeiss) with a Plan-APOCHROMAT 63× 1.4NA oil objective (Carl Zeiss) and pinhole settings of 1 AU with the Zeiss ZEN 2010 software. Image processing and analysis was performed using ImageJ (http://rsb.info.nih.gov/ij/). […] Parkin recruitment events to the mitochondria were counted by hand throughout each z-stack and cell. […] JC-1 images were handled as summed intensity z-stack projections, as well as subjected to flatfield correction and subtraction of background before measuring the fluorescence levels normalized to the number of cell nuclei. The fluorescence intensity ratio between the red and green signal was calculated and compared to DMSO as a ratio of 1. Data were evaluated using Excel and GraphPad Prism 6.
# Parkin [1] = assay: Parkin recruitment to mitochondria, subcellular fractionation and immunoblot; type: cell-based, human; conditions: HEK293 T-REx PINK1 cells, HA-Parkin-IRES-GFP; 5 μM compound 5, CCCP 10 μM or Antimycin A 30 μM
# Method: (§2) Inducible stable Flp-In HEK293 T-REx cells expressing PINK1 were described previously.[33] HEK293 T-REx PINK1 and HEK293T cells were grown in DMEM (Gibco) supplemented with 10% (v/v) fetal bovine serum (ThermoFisher), 1% (v/v) GlutaMAX (Gibco), 1% (v/v) sodium pyruvate (Gibco), 125 μg/mL hygromycin (Invitrogen), and 10 μg/mL blasticidin (Gibco) or DMEM supplemented with 10% (v/v) fetal bovine serum, respectively, at 37 °C in 5% (v/v) CO2. For microscopy, cells were seeded on poly-L-lysine (Sigma)-coated slides. Transient plasmid transfections were performed using 25 kDa linear polyethylenimine (Polysciences). Plasmid (100 ng) encoding HA-Parkin-IRES-GFP, mito-mCherry or Parkin-mEGFP, or 500 ng plasmid encoding PGAM5-FLAG were used per 6-well. Total transfected DNA was 2 μg/well. For siRNA transfection, 2 × 10^5 cells were seeded per 6-well and on the next day transfected with 20 nM siRNA-oligonucleotide using lipofectamine RNAiMAX (ThermoFisher). Cells were analyzed 27 h post-transfection or five days post-siRNA-transfection. HEK293 T-REx PINK1 cells were induced with 0.3 μg/mL doxycycline for 24 h before further processing. Hoechst staining (1 μg/mL) was done immediately before adding treatment to the cells. Treatments were administered for the indicated times before processing; CCCP (Sigma) was always used as 10 μM for 3 h and Antimycin A (Sigma) as 30 μM for 3 h.
# Unless mentioned otherwise, all steps were performed at 4 °C. For subcellular fractionation to separate cellular content into cytosolic and mitochondrial fractions, cells were washed with PBS, harvested in PBS-EDTA (1 mM EDTA, 0.2 g/L D-glucose), and centrifuged at 500 × g for 5 min. […]
# For immunoblot analysis in other cases, cells were either processed as described above or washed with PBS and directly lysed with Tris-glycine SDS-PAGE sample buffer and heated for 15 min at 65 °C. […] For quantification, ImageJ was used (http://rsb.info.nih.gov/ij/). […]
# Parkin [2] = assay: Parkin recruitment to mitochondria and mitochondrial morphology, fluorescence microscopy; type: cell-based, human; conditions: HEK293 T-REx PINK1 cells, 3 h
# Method: as §2
# as §1, with “slides.” for “slides. All microscopy was performed on an LSM 780 system (Carl Zeiss) with a Plan-APOCHROMAT 63× 1.4NA oil objective (Carl Zeiss) and pinhole settings of 1 AU with the Zeiss ZEN 2010 software. Image processing and analysis was performed using ImageJ (http://rsb.info.nih.gov/ij/).”
# [3] = Solubility of fluorogenic substrates in assay buffer (qualitative)
# GlpG [4] = molecular target: T1, GlpG (Escherichia coli, UniProt P09391); type: biochemical, E. coli
# T1 construct: Full-length GlpG with C-terminal His-tag was overexpressed from pET25b + in E. coli C43(DE3); His-tag (C); made in house; host or cells: E. coli C43(DE3)
# T1 sequence (P09391 whole entry): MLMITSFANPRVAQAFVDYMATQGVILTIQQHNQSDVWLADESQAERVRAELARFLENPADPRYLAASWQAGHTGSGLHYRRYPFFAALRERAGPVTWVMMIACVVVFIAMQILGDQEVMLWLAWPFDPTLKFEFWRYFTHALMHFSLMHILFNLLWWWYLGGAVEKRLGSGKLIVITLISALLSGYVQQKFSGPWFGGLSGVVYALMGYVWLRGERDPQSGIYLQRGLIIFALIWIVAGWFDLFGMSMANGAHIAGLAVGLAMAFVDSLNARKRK
# Method: Emission spectra of aminomethyl coumarin and cleavage of compound 1 were monitored in 50 mM potassium phosphate pH 7.4, 150 mM NaCl, 20% (w/v) glycerol, 0.05% (w/v) PEG8000, 0.05% (w/v) DDM, 10% (w/v) DMSO. The compounds (1 mM) were incubated with 10 μM GlpG WT or S201T, 1 μM elastase, or buffer, respectively, as indicated in the legend of Figure 1A at 37 °C for 1 h. Samples were diluted 8-fold with buffer, and emission spectra were measured in 96-well black HTS plates (Greiner Bio-One) by a plate reader (Tecan Infinite M1000) using an excitation wavelength of 355 nm. Data were evaluated using Excel (Microsoft) and GraphPad Prism 9 (GraphPad Software, Inc.). The data shown are representative of three independent experiments.
# (§3) Activity and inhibition assays of GlpG shown in Figure 1B–D were carried out in 50 mM potassium phosphate pH 7.4, 150 mM NaCl, 20% (v/v) glycerol, 0.05% (w/v) PEG8000, 0.05% (w/v) DDM, and 5% (v/v) DMSO. […] All activity measurements were performed at 37 °C in 96-well black HTS plates (Greiner Bio-One) and fluorescence was monitored in a plate reader (Tecan Infinite M1000) with excitation and emission wavelengths set to 355 and 450 nm, respectively, for compound 1, and 335 and 493 nm, respectively, for the transmembrane substrate KSp96. Data were evaluated using Excel (Microsoft) and GraphPad Prism 9 (GraphPad Software, Inc.).
# Activity measurements of GlpG with varying DDM concentrations were obtained in 20 mM HEPES (pH 7.4), 150 mM NaCl using 100 nM GlpG, and DDM at the concentration indicated in the graphs. Buffer for measurements with compound 1 contained additionally 5% (v/v) DMSO. Compound 1 and transmembrane substrate were used at 10 μM final concentration. Activity measurements were performed at 37 °C in 96-well black HTS plates (Greiner Bio-One), and fluorescence was monitored in a plate reader (Tecan Infinite M1000) with excitation and emission wavelengths set to 355 and 450 nm for compound 1 and 335 and 493 nm for the transmembrane substrate, respectively. Data were evaluated using Excel (Microsoft) and GraphPad Prism 9 (GraphPad Software, Inc.).
# GlpG [5] = molecular target: T1, GlpG; assay: Inhibition assay of GlpG with fluorogenic substrate compound 1; type: biochemical, E. coli; conditions: detergent-solubilized GlpG 100 nM, substrate compound 1, 1 h preincubation at 37 °C, mean ± SEM of three measurements
# Method: as §3
# PARL = molecular target: T2, PARL (Homo sapiens, UniProt Q9H300); assay: In vitro assay for PARL activity, cleavage of AMC substrates by liposome-embedded PARL; type: biochemical; set-up: hexahistidine tag (C); made in house; host or cells: continuous-exchange cell-free expression in bacterial lysates with T7 polymerase (CUBE biotech), into liposomes; conditions: mature PARL in liposomes, S277A catalytic mutant as control
# T2 sequence (Q9H300 53-379): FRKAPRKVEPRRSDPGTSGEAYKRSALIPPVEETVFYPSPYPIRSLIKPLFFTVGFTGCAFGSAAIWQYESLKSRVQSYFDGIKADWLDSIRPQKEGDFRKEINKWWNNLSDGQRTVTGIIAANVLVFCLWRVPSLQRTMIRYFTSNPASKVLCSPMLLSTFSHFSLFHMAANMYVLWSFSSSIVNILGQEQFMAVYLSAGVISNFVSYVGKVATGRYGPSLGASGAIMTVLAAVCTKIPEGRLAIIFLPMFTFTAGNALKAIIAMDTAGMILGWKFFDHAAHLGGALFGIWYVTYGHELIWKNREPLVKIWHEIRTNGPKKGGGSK
# Method: Liposome preparation and cell-free protein expression of PARL were carried out essentially as described previously.[27] Liposomes resembling the lipid composition of the IMM were prepared by mixing 40% DOPC (1,2-dioleoyl-sn-glycero-3-phosphocholine), 33.8% DOPE (1,2-dioleoyl-sn-glycero-3-phosphoethanolamine), 18% CL(18:1)4 (1′,3′-bis[1,2-dioleyl-sn-glycero-3-phospho]-glycerol), 3% DOPS (1,2-dioleoyl-sn-glycero-3-phospho-L-serine), 5% soy-PI (L-α-phosphatidylinositol), and 0.2% rhodamine-PE (1,2-dioleoyl-sn-glycero-3-phosphoethanolamine-N-(lissamine rhodamine B sulfonyl)) in chloroform, followed by the evaporation of chloroform by a stream of nitrogen gas and drying in a vacuum chamber (Binder) for 1 h. […] Concentration of PARL was determined by absorption at 280 nm.
# The PARL activity assay in vitro was carried out in 5 mM Tris, 5 mM Mg(OAc)2, 25 μM Zn(OAc)2, 0.1 μg/μL BSA, 30% DMSO, pH 8.0 using PARL in liposomes at 0.05 mg/mL. Compound 3 and 4 were used at 5 μM final concentration based on quantitative amino acid analysis. […] The cleavage reaction was carried out at 37 °C in 96-well black HTS plates (Greiner Bio-One) in a plate reader (Tecan Infinite M1000) with excitation and emission wavelengths set to 355 and 450 nm, respectively. Data were evaluated using Excel (Microsoft) and GraphPad Prism 9 (GraphPad Software, Inc.).
structure (smiles),measurement,setting,value
"N#CC(C#N)=NNc1cccc(Cl)c1 [CCCP, carbonyl cyanide m-chlorophenyl hydrazone]",Effect on mitochondrial membrane potential (JC-1 aggregate to monomer ratio),HEK293T cells,lowers the membrane potential
same,Parkin recruitment to the mitochondrial fraction,Parkin [1],significant recruitment of Parkin to the mitochondrial fraction
same,Mitochondrial morphology,Parkin [2],severe rounding and clustering
"CC(=O)N[C@@H](CCCNC(=N)N)C(=O)N[C@H](C(=O)N[C@@H](CCCNC(=N)N)C(=O)N[C@@H](Cc1c[nH]cn1)C(=O)N[C@@H](C)C(=O)Nc1ccc2c(C)cc(=O)oc2c1)C(C)C [compound 1, AcRVRHA-4mc] (Ac-RVRHA-{AMC})",Solubility of substrate,[3],sufficiently soluble to be useable at hundreds of micromolar concentrations
same,Apparent Michaelis constant for substrate,GlpG [4]; GlpG in DDM micelle environment,approximately 500 μM
same,Michaelis constant KM for substrate,"GlpG [4]; GlpG, detergent",about half
same,Cleavage of substrate by GlpG,GlpG [4]; detergent micelles and/or DIBMA lipid nanodiscs,cleaved by GlpG with similar efficiency in lipid nanodiscs and in detergent micelles; also recorded: can be cleaved by active GlpG embedded in polymer nanodiscs
CC(=O)N[C@H](C(=O)N[C@@H](CCCNC(=N)N)C(=O)N[C@@H](Cc1c[nH]cn1)C(=O)N[C@@H](C)C(=O)C(=O)NCCCCc1ccccc1)C(C)C [compound 2],IC50,GlpG [5],132 ± 23 nM
"CC(=O)N[C@@H](CCCNC(=N)N)C(=O)N[C@@H](CCCNC(=N)N)C(=O)N[C@@H](CCCNC(=N)N)C(=O)N[C@@H](C)C(=O)N[C@H](C(=O)N[C@@H](Cc1ccccc1)C(=O)N[C@@H](CC(C)C)C(=O)N[C@@H](C)C(=O)Nc1ccc2c(C)cc(=O)oc2c1)C(C)C [compound 4, AcRRRAVFLA-4mc] (Ac-RRRAVFLA-{AMC})",Cleavage of substrate by liposome-embedded PARL,PARL,are cleaved by liposome-embedded PARL but not its catalytic mutant
